The values that follow come from patent US11753403B2, “EIF4E inhibitors and uses thereof” (PIC Therapeutics, Inc., priority 2020, dated 2023).

Human eIF4E (aa 28-217) / biotin labeled 4G2 peptide, sequence (P06730 28-217): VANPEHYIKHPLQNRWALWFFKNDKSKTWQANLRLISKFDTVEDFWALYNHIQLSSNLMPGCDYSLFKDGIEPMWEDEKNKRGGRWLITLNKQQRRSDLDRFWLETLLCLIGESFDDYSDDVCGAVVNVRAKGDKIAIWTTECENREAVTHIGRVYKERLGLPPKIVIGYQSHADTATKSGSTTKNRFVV

The target in the assay is Human eIF4E (aa 28-217) / biotin labeled 4G2 peptide (Homo sapiens (Human), UniProt P06730). Kind of assay: Human eIF4E/4G2 binding assay (TR-FRET). The conditions noted are these: Human eIF4E/4G2 TR-FRET binding assay; head says IC50, legend says EC50. In a few lines:
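Refolded His-tagged human eIF4E (aa 28-217), 82.5 nM working stock, preincubated 4 h at RT with compounds (10-point 2-fold series) in NaPi pH 6.5 buffer with DTT and gamma globulin. Biotin-4G2 peptide then added for 20 min, followed by Eu-streptavidin/APC-anti-His for 20 min; TR-FRET 665/615 nm ratio normalized, IC50 fitted.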
In general terms: Time-resolved FRET reads energy transfer from a long-lived donor to a nearby acceptor.
Usually IC50 stands for the concentration needed to halve the response being measured. A higher IC50 goes with weaker potency. The compound `COc1ccc(Nc2nc(-c3ccc(Cl)c(Cl)c3)c(CC(C)C)s2)cc1C(=O)O` [I-210] registered an IC50 not above 1000 nM.
Turning to `CC(C)Cc1sc(NCC(Cc2ccc3[nH]ccc3c2)C(=O)O)nc1-c1ccc(Cl)c(Cl)c1` (stereo not drawn) [I-27], the IC50 was not above 1000 nM.
As for `CC(C)Cc1sc(N(CCC(=O)N(C)CCN)Cc2ccccc2)nc1-c1ccc(Cl)c(Cl)c1` [I-132], the figure is 1000 to 10000 nM; as for `CCOC(=O)NC1CN(c2nc(-c3ccc(Cl)c(Cl)c3)c(CC(C)C)s2)C1=O` (stereo not drawn) [I-139, ethyl 1-(4-(3,4-dichlorophenyl)-5-isobutylthiazol-2-yl)-2-oxoazetidin-3-ylcarbamate], 1000 to 10000 nM; as for `O=Cc1sc(N(CCC(=O)O)Cc2ccccc2)nc1-c1ccc(Cl)c(Cl)c1` [I-119, 3-(benzyl(4-(3,4-dichlorophenyl)-5-formylthiazol-2-yl)amino)propanoic acid], 1000 to 10000 nM.
As for `CC(C)Cc1sc(N(CCC(=O)O)CCN(C)C)nc1-c1ccc(Cl)c(Cl)c1` [I-72], the figure is more than 10000 nM.
In the case of `CC(C)Cc1sc(N(CCC(=O)O)Cc2ccccc2)nc1-c1ccc(Oc2ccccc2)c(Cl)c1` [I-103] it was not above 1000 nM; in that of `COc1ccc(-c2nc(N(CCC(=O)O)Cc3ccccc3)sc2C(C)C)cc1` [I-76], more than 10000 nM.
`CC(C)Cc1sc(N2CCN(C(=O)c3ncccn3)C(C(=O)O)C2)nc1-c1ccc(Cl)c(Cl)c1` (stereo not drawn) [I-249] gave an IC50 of 1000 to 10000 nM.
In the case of `CC(C)Cc1sc(-c2ccc(C(F)(F)F)c(C(=O)O)c2)nc1-c1ccc(Cl)c(Cl)c1` [I-227] it was 1000 to 10000 nM; in that of `CC(C)Cc1sc(-c2ccc(Br)c(C(=O)O)c2)nc1-c1ccc(Cl)c(Cl)c1` [I-224, 2-bromo-5-(4-(3,4-dichlorophenyl)-5-isobutylthiazol-2-yl)benzoic acid], 1000 to 10000 nM.
In the case of `CC(C)Cc1sc(N(CCC(=O)NS(=O)(=O)CCN)Cc2ccccc2)nc1-c1ccc(Cl)c(Cl)c1` [I-198] it was more than 10000 nM; in that of `CC(C)Cc1sc(NCC(N)C(=O)O)nc1-c1ccc(Cl)c(Cl)c1` (stereo not drawn) [I-115, 2-amino-3-(4-(3,4-dichlorophenyl)-5-isobutylthiazol-2-ylamino)propanoic acid], more than 10000 nM.
As for `CC(C)Cc1sc(Nc2cc(F)cc(C(=O)O)c2)nc1-c1ccc(Cl)c(Cl)c1` [I-212], the figure is not above 1000 nM.
With `CC(C)Cc1sc(NCC(Cc2ccc(C(N)=O)cc2)C(=O)O)nc1-c1ccc(Cl)c(Cl)c1` (stereo not drawn) [I-166, 2-(4-carbamoylbenzyl)-3-(4-(3,4-dichlorophenyl)-5-isobutylthiazol-2-ylamino)propanoic acid], the IC50 was 1000 to 10000 nM.
`CC(C)Cc1sc(N(Cc2ccccc2)CC(O)C(=O)O)nc1-c1ccc(Cl)c(Cl)c1` (stereo not drawn) [I-190, 3-(benzyl(4-(3,4-dichlorophenyl)-5-isobutylthiazol-2-yl)amino)-2-hydroxypropanoic acid] came in with an IC50 not above 1000 nM.
As for `COC(=O)c1ccc(Nc2nc(-c3ccc(Cl)c(Cl)c3)c(CC(C)C)s2)n1C` [I-287], the figure is more than 10000 nM.
In the case of `CC(C)Cc1sc(Nc2nccc(Cl)c2C(=O)O)nc1-c1ccc(Cl)c(Cl)c1` [I-242] it was not above 1000 nM; in that of `CC(C)Cc1sc(N(CCC(=O)O)Cc2ccc3[nH]ccc3c2)nc1-c1ccc(Cl)c(Cl)c1` [I-55], not above 1000 nM.
In the case of `CC(C)Cc1sc(N(CCC(=O)O)Cc2ccc(O)cc2)nc1-c1ccc(Cl)c(Cl)c1` [I-73] it was 1000 to 10000 nM; in that of `COc1ccccc1CC(CNc1nc(-c2ccc(Cl)c(Cl)c2)c(C(C)C)s1)C(=O)O` (stereo not drawn) [I-3], not above 1000 nM.
`COc1ncc(CC(CNc2nc(-c3ccc(Cl)c(Cl)c3)c(CC(C)C)s2)C(=O)O)cn1` (stereo not drawn) [I-160] displayed an IC50 of more than 10000 nM.
As for `COc1ccc(-c2nc(Nc3ncc(-c4cccs4)cc3C(=O)O)sc2CC(C)C)cc1` [I-333], the figure is not above 1000 nM; as for `CC(C)Cc1sc(Nc2ncc(-c3ccc4ccccc4c3)cc2C(=O)O)nc1-c1ccc(Cl)c(Cl)c1` [I-322, 2-(4-(3,4-dichlorophenyl)-5-isobutylthiazol-2-ylamino)-5-(naphthalen-2-yl)nicotinic acid], not above 1000 nM; as for `CC(C)Cc1sc(N(CCC(=O)NCCCN)Cc2ccccc2)nc1-c1ccc(Cl)c(Cl)c1` [I-192], 1000 to 10000 nM.
As for `CC(C)Cc1sc(-c2cc(C(=O)O)ccn2)nc1-c1ccc(Cl)c(Cl)c1` [I-238], the figure is 1000 to 10000 nM.
As for `CC(C)Cc1sc(N(CCNC(=N)N)Cc2ccccc2)nc1-c1ccc(Cl)c(Cl)c1` [I-232, 2-(2-(benzyl(4-(3,4-dichlorophenyl)-5-isobutylthiazol-2-yl)amino)ethyl)guanidine], the figure is 1000 to 10000 nM; as for `CC(C)Cc1sc(Nc2cc(C(=O)O)cc(C(F)(F)F)c2)nc1-c1ccc(Cl)c(Cl)c1` [I-213], not above 1000 nM.
As for `CC(C)Cc1sc(NCC(Cc2cccnc2)C(=O)O)nc1-c1ccc(Cl)c(Cl)c1` (stereo not drawn) [I-155], the IC50 fell in the range of 1000 to 10000 nM.
In the case of `CC(C)Cc1sc(Nc2cccc(C(F)(F)F)c2C(=O)O)nc1-c1ccc(Cl)c(Cl)c1` [I-236] it was not above 1000 nM.
`CC(C)Cc1sc(NCC(Cc2cccc(S(C)(=O)=O)c2)C(=O)O)nc1-c1ccc(Cl)c(Cl)c1` (stereo not drawn) [I-172]: the IC50 is 1000 to 10000 nM.
As for `CC(C)Cc1sc(NCC(C(=O)O)N(C)C)nc1-c1ccc(Cl)c(Cl)c1` (stereo not drawn) [I-116, 3-(4-(3,4-dichlorophenyl)-5-isobutylthiazol-2-ylamino)-2-(dimethylamino)propanoic acid], the figure is more than 10000 nM; as for `O=C(O)C(CNc1nc(-c2ccc(Cl)c(Cl)c2)c(C2CC2)s1)Cc1cccc(F)c1` (stereo not drawn) [I-14], 1000 to 10000 nM.
As for `CC(C)Cc1sc(Nc2ccsc2C(=O)O)nc1-c1ccc(Cl)c(Cl)c1` [I-256], the figure is not above 1000 nM; as for `CC(C)Cc1sc(NCC(Cc2cccc3c2OCO3)C(=O)O)nc1-c1ccc(Cl)c(Cl)c1` (stereo not drawn) [I-19], not above 1000 nM; as for `CC(C)Cc1sc(NCC(Cc2ccnc(O)c2)C(=O)O)nc1-c1ccc(Cl)c(Cl)c1` (stereo not drawn) [I-164], 1000 to 10000 nM.
As for `CC(C)Cc1sc(NCC(C(=O)O)N(C)Cc2ccccc2)nc1-c1ccc(Cl)c(Cl)c1` (stereo not drawn) [I-114, 2-(benzyl(methyl)amino)-3-(4-(3,4-dichlorophenyl)-5-isobutylthiazol-2-ylamino)propanoic acid], the figure is 1000 to 10000 nM.
Regarding `O=C(O)C(CNc1nc(-c2ccc(Cl)c(Cl)c2)c(C2CC2)s1)Cc1cccc(O)c1` (stereo not drawn) [I-13], the IC50 was 1000 to 10000 nM.
Regarding `CC(C)Cc1sc(N(CCC(=O)O)CCC2CC2)nc1-c1ccc(Cl)c(Cl)c1` [I-106], the IC50 was in the range of 1000 to 10000 nM.
As for `O=C(O)CCN(Cc1ccccc1)c1nc(-c2ccc(Cl)c(Cl)c2)c(CN2CCC2)s1` [I-130], the figure is more than 10000 nM; as for `COc1ccccc1CC(CNc1nc(-c2ccc(Cl)c(Cl)c2)c(C2CC2)s1)C(=O)O` (stereo not drawn) [I-12], 1000 to 10000 nM.
In the case of `O=C(O)C(CNc1nc(-c2ccc(Cl)c(Cl)c2)c(C2CCCC2)s1)Cc1ccccc1` (stereo not drawn) [I-177] it was not above 1000 nM; in that of `CC(C)c1sc(NCC(Cc2cccc3[nH]ccc23)C(=O)O)nc1-c1ccc(Cl)c(Cl)c1` (stereo not drawn) [I-8], 1000 to 10000 nM; in that of `CC(C)Cc1sc(-c2cccc(C(=O)O)c2)nc1-c1ccc(Cl)c(Cl)c1` [I-203, 3-(4-(3,4-dichlorophenyl)-5-isobutylthiazol-2-yl)benzoic acid], 1000 to 10000 nM.
Consider `CC(C)c1sc(Nc2ncccc2C(=O)O)nc1-c1ccc(Cl)c(Cl)c1` [I-258], for which the IC50 is not above 1000 nM.
Compound `CC(C)c1sc(NCC(Cc2cccc3cc[nH]c23)C(=O)O)nc1-c1ccc(Cl)c(Cl)c1` (stereo not drawn) [I-7, 2-((1H-indol-7-yl)methyl)-3-(4-(3,4-dichlorophenyl)-5-isopropylthiazol-2-ylamino) propanoic acid] registered an IC50 not above 1000 nM.
In the case of `COc1cc(-c2cnc(Nc3nc(-c4ccc(Cl)c(Cl)c4)c(C(C)C)s3)c(C(=O)O)c2)ccn1` [I-268] it was not above 1000 nM; in that of `COc1cccc(-c2nc(NCC(Cc3cccc4[nH]ccc34)C(=O)O)sc2C(C)C)c1` (stereo not drawn) [I-35], 1000 to 10000 nM.
In the case of `CC(C)Cc1sc(N2CCN(C(=O)OCc3ccccc3)C(C(=O)O)C2)nc1-c1ccc(Cl)c(Cl)c1` (stereo not drawn) [I-244, 1-(benzyloxycarbonyl)-4-(4-(3,4-dichlorophenyl)-5-isobutylthiazol-2-yl)piperazine-2-carboxylic acid] it was not above 1000 nM; in that of `CC(C)Cc1sc(N(CCC(=O)O)Cc2ccc[nH]2)nc1-c1ccc(Cl)c(Cl)c1` [I-110], 1000 to 10000 nM; in that of `CC(C)c1sc(NCC(Cc2cccc3c2OCO3)C(=O)O)nc1-c1ccc(Cl)cc1` (stereo not drawn) [I-39], 1000 to 10000 nM.
As for `COc1cccc(-c2nc(NCC(Cc3ccccc3)C(=O)O)sc2C(C)C)c1` (stereo not drawn) [I-28], the figure is more than 10000 nM; as for `CC(C)Cc1sc(N(CCC(=O)O)CCC(=O)O)nc1-c1ccc(Cl)c(Cl)c1` [I-58, 3,3′-(4-(3,4-dichlorophenyl)-5-isobutylthiazol-2-ylazanediyl)dipropanoic acid], more than 10000 nM.
The compound `CC(C)Cc1sc(NCC(Cc2cccc(S(N)(=O)=O)c2)C(=O)O)nc1-c1ccc(Cl)c(Cl)c1` (stereo not drawn) [I-173] displayed an IC50 of 1000 to 10000 nM.
In the case of `CC(C)c1sc(NCC(CCc2ccccc2)C(=O)O)nc1-c1ccc(Cl)c(Cl)c1` (stereo not drawn) [I-6] it was not above 1000 nM; in that of `CC(C)Cc1sc(N(CCC(=O)O)Cc2cccc(Cl)c2)nc1-c1ccc(Cl)c(Cl)c1` [I-107], not above 1000 nM.
In the case of `CC(C)Cc1sc(N(CCC(=O)O)Cc2ccc(Cl)cc2)nc1-c1ccc(Cl)c(Cl)c1` [I-109] it was 1000 to 10000 nM; in that of `O=C(O)C(CNc1nc(-c2ccc(Cl)c(Cl)c2)c(C2CC2)s1)Cc1cccc2[nH]ccc12` (stereo not drawn) [I-16], 1000 to 10000 nM.
As for `CC(C)Cc1sc(Nc2ncc(-c3cccs3)cc2C(=O)O)nc1-c1ccc(OCC(N)=O)c(Cl)c1` [I-329, 2-(4-(4-(2-amino-2-oxoethoxy)-3-chlorophenyl)-5-isobutylthiazol-2-ylamino)-5-(thiophen-2-yl)nicotinic acid], the figure is not above 1000 nM.
As to `O=C(O)C(CNc1nc(-c2ccc(Cl)c(Cl)c2)c(C2CC2)s1)Cc1ccccc1` (stereo not drawn) [I-11], the IC50 lay within 1000 to 10000 nM.
